Literature values as cited in patent US12071516B2, “Polymeric stabilizing formulations” (Nano Precision Medical, Inc., priority 2014, dated 2024).

OCCN1CCN(CCCN2c3ccccc3Sc3ccc(C(F)(F)F)cc32)CC1 [Fluphenazine]
water solubility: limited water solubility
